Measured values published in patent US6613800B1, “Method and compositions for treating psoriasis, eczema, seborrhea and arthritis” (priority 2001, dated 2003).

System: psoriasis
Assay: Case studies: clinical treatment of resistant psoriasis
Type: in vivo, human
Conditions: Case No. 9; Methotrexate 5-10 mg per week from April 2001, Psorex stopped; summer to August 2001
Text: The following case studies are presented to show results from clinical trials of the present invention on resistant cases of psoriasis, eczema and seborrhea.
A combination of Psorizide Ultra® and Psorex® was employed in some of these case studies. In others, a combination of Psorizide Ultra® and Fumaric Acid 1× was used. Psorizide Ultra® is a natural mineral homeopathic medication commercially available from Applicant's company, i.e. LOMA LUX Laboratories, 5801 E. 41st Street, Suite 200, Tulsa, Okla. 74135. This prescription drug includes active ingredients of nickel sulfate and potassium bromide.
Psorex® is a scientifically designed supplement containing reagent grade fumaric acid esters. This supplement is commercially available from Ecological Formulas at 1-800-888-4585. Each Psorex® capsule contains 120 mg fumaric acid ester.
Fumaric Acid 1×300 mg tablets are commercially available from B.H.I., 11600 Cochiti Road SE, Albuquerque, N.Mex. 87123-3376. Each Fumaric Acid 1× tablet contains approximately 30 mg of fumaric acid.
The patient is a person with a ten year history of psoriasis of the anogenital region. They had been treated with numerous topical lotions with only limited results. More recently they also developed left knee involvement and flaring of all disease sites due to surgery. They presented November 2000 complaining of itching. […]

Question: With CN(Cc1cnc2nc(N)nc(N)c2n1)c1ccc(C(=O)N[C@@H](CCC(=O)O)C(=O)O)cc1 [Methotrexate®, Methotrexate] as the molecule, how does the “clinical condition of plaque psoriasis” value read?
Answer: The value was “doing very well through the summer, but by August 2001 the psoriasis was worse”.
